Experimental data reported in patent US10562869B2, “Oxadiazole compounds” (REMYND NV, priority 2014, dated 2020).

Tested on: M17_3TAU(P301L) cells
Test: Retinoic acid-induced cytotoxicity (LDH) in TAU-P301L expressing M17_3TAU(P301L) neuroblastoma cells
Format: cell-based
Conditions: Homo sapiens, Neuroblastoma cell, 168 h; toxicity inhibition (LDH) in M17_3TAU(P301L) cells challenged with retinoic acid, 7 days
Source text: A TAU expression plasmid was constructed by sub-cloning the cDNA encoding for human TAU-P301L protein, wherein proline at position 301 was substituted by a leucine residue, into mammalian expression vector pcDNA3.1 resulting in the plasmid pcDNA3.1-TAUP301L. Plasmid pcDNA3.1-TAU P301L was transfected into human neuroblastoma cells (BE-M17; ATCC No. CRL-2267™) using lipofectamine reagent and subsequently, independent clonal cell lines with the plasmids stably integrated into the genome were selected by antibiotic resistance selection (Geneticin (G418)), resulting in cell line M17_3TAUP301L. Expression of the TAUP301L gene in the M17_3TAUP301L cells was confirmed by Western blot analysis.
M17_3TAU(P301L) cells were treated chronically with retinoic acid (RA) in low serum conditions to induce Alzheimer's disease-like intracellular signaling deregulation leading to increased TAU levels and subsequent cell death. Cytotoxicity of cells was measured by quantification of lactate dehydrogenase (LDH) levels. In dead cells LDH leaked out of the cells into the medium due to a loss of plasma-membrane integrity.
3 days preceding the experiment, a pre-culture of M17_3TAU(P301L) cells was prepared, starting from a stock culture, at a density of 50.000-100.000 cells/cm^2 in culture medium (Optimem Reduced Serum with phenol red (Invitrogen, Cat. 31985-047)) supplemented with 10% fetal calf serum (FCS), 1 mM sodium pyruvate, 1×non-essential amino acids (NEAA), 500 μg/ml G418 and 0.5×(ABAM). At the day of the experiment these precultures were diluted to ˜0.1·10^6 cells/ml in detection medium (Optimem Reduced Serum without phenol red (Gibco, Cat.11058-021) supplemented with 1% fetal calf serum (FCS), 1 mM sodium pyruvate, 1×non-essential amino acids (NEAA), 500 μg/ml G418 and 0.5×ABAM) and 60 μL of this suspension was dispensed per well into a 96-well microtiter plate. After 3 hours of incubation at 37° C./5% CO2 an equal volume of detection medium (without FCS) containing 3.75 μM RA was added and subsequently incubated for 7 days at 37° C./5% CO2. Then LDH activity was determined using the Promega Cytotox 96 Non-Radioactive cytotoxicity assay (Cat. G1780), according to the manufacturer's instructions. Cytotoxicity was defined as the ratio of LDH relative the total LDH in the cells and supernatant.
The assay described above using the M17_3TAU(P301L) cell line allowed to screen compounds for their ability to decrease cytotoxicity in RA-challenged cells. Compounds of the invention were tested for their ability to decrease toxicity at different concentrations, ranging from low non-effective concentrations to high potent concentrations. Afterwards, the dose-dependent inhibition curve was used to calculate their EC50. A compound was considered to be active in this test when it inhibited toxicity by more than 20% relative to untreated M17_3TAU(P301L) cells at a concentration of 10 μM or lower.

| SMILES | EC50 [nM] |
| --- | --- |
| Cc1cccc(CN2CCN(c3nc(Cc4cccc(F)c4)no3)CC2)c1 [Cmpd089, 1-[3-(3-Fluoro-benzyl)-[1,2,4]oxadiazol-5-yl]-4-(3-methyl-benzyl)-piperazine] | 485 |
| COc1cccc(CCN2CCN(c3nc(Cc4cccc(F)c4)no3)CC2)c1 [Cmpd090, 1-[3-(3-Fluoro-benzyl)-[1,2,4]oxadiazol-5-yl]-4-[2-(3-methoxy-phenyl)-ethyl]-piperazine] | 37 |
| Fc1ccc(Cc2noc(N3CCN(Cc4ccc(Cl)cc4)CC3)n2)cc1F [Cmpd097, 1-(4-Chloro-benzyl)-4-[3-(3,4-difluoro-benzyl)-[1,2,4]oxadiazol-5-yl]-piperazine] | 486 |
| COc1cccc(CCN2CCN(c3nc(Cc4ccc(F)c(F)c4)no3)CC2)c1 [Cmpd098, 1-[3-(3,4-Difluoro-benzyl)-[1,2,4]oxadiazol-5-yl]-4-[2-(3-methoxy-phenyl)-ethyl]-piperazine] | 3 |
| Fc1ccc(Cc2noc(N3CCN(CCc4ccc(Cl)cc4)CC3)n2)cc1F [Cmpd102, 1-[2-(4-Chloro-phenyl)-ethyl]-4-[3-(3,4-difluoro-benzyl)-[1,2,4]oxadiazol-5-yl]-piperazine] | 17 |
| Cc1ccccc1CN1CCN(c2nc(Cc3ccc(F)c(F)c3)no2)CC1 [Cmpd104, 1-[3-(3,4-Difluoro-benzyl)-[1,2,4]oxadiazol-5-yl]-4-(2-methyl-benzyl)-piperazine] | 37 |
| Cc1ccccc1CN1CCN(c2nc(C3(c4ccc(F)cc4)CC3)no2)CC1 [Cmpd108, 3-(1-(4-Fluorophenyl)cyclopropyl)-5-(4-(2-methylbenzyl)piperazin-1-yl)-1,2,4-oxadiazole] | 758 |
| COc1cccc(CCN2CCN(c3nc(C4(c5ccc(F)cc5)CC4)no3)CC2)c1 [Cmpd109, 3-(1-(4-Fluorophenyl)cyclopropyl)-5-(4-(3-methoxyphenethyl)piperazin-1-yl)-1,2,4-oxadiazole] | 487 |
| Fc1ccc(C2(c3noc(N4CCN(CCc5ccc(Cl)cc5)CC4)n3)CC2)cc1 [Cmpd111, 5-(4-(4-Chlorophenethyl)piperazin-1-yl)-3-(1-(4-fluorophenyl)cyclopropyl)-1,2,4-oxadiazole] | 237 |
| COc1cccc(CCN2CCN(c3nc(C(C)(C)c4ccc(F)cc4)no3)CC2)c1 [Cmpd118, 3-(2-(4-Fluorophenyl)propan-2-yl)-5-(4-(3-methoxyphenethyl)piperazin-1-yl)-1,2,4-oxadiazole] | 105 |
| Cc1ccccc1CN1CCN(c2nc(C3(c4ccccc4)CC3)no2)CC1 [Cmpd123, 5-(4-(2-Methylbenzyl)piperazin-1-yl)-3-(1-phenylcyclopropyl)-1,2,4-oxadiazole] | 849 |
| COc1cccc(CCN2CCN(c3nc(C4(c5ccccc5)CC4)no3)CC2)c1 [Cmpd125, 5-(4-(3-Methoxyphenethyl)piperazin-1-yl)-3-(1-phenylcyclopropyl)-1,2,4-oxadiazole] | 103 |
| Clc1ccc(CCN2CCN(c3nc(C4(c5ccccc5)CC4)no3)CC2)cc1 [Cmpd127, 5-(4-(4-Chlorophenethyl)piperazin-1-yl)-3-(1-phenylcyclopropyl)-1,2,4-oxadiazole] | 59 |
| FC1(F)Oc2ccc(CN3CCN(c4nc(C5(c6ccccc6)CC5)no4)CC3)cc2O1 [Cmpd128, 5-(4-((2,2-Difluorobenzo[d][1,3]dioxol-5-yl)methyl)piperazin-1-yl)-3-(1-phenylcyclopropyl)-1,2,4-oxadiazole] | 617 |
| Cc1ccc(CN2CCN(c3nc(C4(c5ccccc5)CC4)no3)CC2)cc1 [Cmpd130, 5-(4-(4-Methylbenzyl)piperazin-1-yl)-3-(1-phenylcyclopropyl)-1,2,4-oxadiazole] | 185 |
| COc1cc(CCN2CCN(c3nc(C4(c5ccccc5)CC4)no3)CC2)ccn1 [Cmpd131, 5-(4-(2-(2-Methoxypyridin-4-yl)ethyl)piperazin-1-yl)-3-(1-phenylcyclopropyl)-1,2,4-oxadiazole] | 135 |
| CC(C)CCN1CCN(c2nc(C3(c4ccccc4)CC3)no2)CC1 [Cmpd133, 5-(4-Isopentylpiperazin-1-yl)-3-(1-phenylcyclopropyl)-1,2,4-oxadiazole] | 30 |

| SMILES | EC50 [nM] |
| --- | --- |
| Fc1ccc(C(F)(F)c2noc(N3CCN(Cc4ccc5c(c4)OCO5)CC3)n2)cc1 [Cmpd149, 5-(4-(Benzo[d][1,3]dioxol-5-ylmethyl)piperazin-1-yl)-3-(difluoro(4-fluorophenyl)methyl)-1,2,4-oxadiazole] | 849 |
| COc1cccc(CCN2CCN(c3nc(C(F)(F)c4ccc(F)cc4)no3)CC2)c1 [Cmpd150, 3-(Difluoro(4-fluorophenyl)methyl)-5-(4-(3-methoxyphenethyl)piperazin-1-yl)-1,2,4-oxadiazole] | 199 |
| COc1cccc(CCN2CCN(c3nc(CC(F)(F)F)no3)CC2)c1 [Cmpd163, 5-(4-(3-Methoxyphenethyl)piperazin-1-yl)-3-(2,2,2-trifluoroethyl)-1,2,4-oxadiazole] | 418 |
| FC(F)(F)Cc1noc(N2CCN(CCc3ccc(Cl)cc3)CC2)n1 [Cmpd164, 5-(4-(4-Chlorophenethyl)piperazin-1-yl)-3-(2,2,2-trifluoroethyl)-1,2,4-oxadiazole] | 306 |
| Cc1cc(Cc2noc(N3CCN(CCc4ccc(Cl)cc4)CC3)n2)ccn1 [Cmpd170, 5-(4-(4-Chlorophenethyl)piperazin-1-yl)-3-((2-methylpyridin-4-yl)methyl)-1,2,4-oxadiazole] | 640 |
| FC(F)(F)CCc1noc(N2CCN(CCc3ccc(Cl)cc3)CC2)n1 [Cmpd174, 5-(4-(4-Chlorophenethyl)piperazin-1-yl)-3-(3,3,3-trifluoropropyl)-1,2,4-oxadiazole] | 24 |
| COc1cc(CCN2CCN(c3nc(CCC(F)(F)F)no3)CC2)ccn1 [Cmpd175, 5-(4-(2-(2-Methoxypyridin-4-yl)ethyl)piperazin-1-yl)-3-(3,3,3-trifluoropropyl)-1,2,4-oxadiazole] | 105 |
| Cc1ccccc1CN1CCN(c2nc(CCC(F)(F)F)no2)CC1 [Cmpd176, 5-(4-(2-Methylbenzyl)piperazin-1-yl)-3-(3,3,3-trifluoropropyl)-1,2,4-oxadiazole] | 169 |
| FC(F)(F)CCc1noc(N2CCN(Cc3ccccc3Cl)CC2)n1 [Cmpd177, 5-(4-(2-Chlorobenzyl)piperazin-1-yl)-3-(3,3,3-trifluoropropyl)-1,2,4-oxadiazole] | 172 |
| CC(C)CCN1CCN(c2nc(CCC(F)(F)F)no2)CC1 [Cmpd179, 5-(4-Isopentylpiperazin-1-yl)-3-(3,3,3-trifluoropropyl)-1,2,4-oxadiazole] | 46 |
| FC(F)(F)CCc1noc(N2CCN(CCN3CCOCC3)CC2)n1 [Cmpd180, 4-(2-(4-(3-(3,3,3-Trifluoropropyl)-1,2,4-oxadiazol-5-yl)piperazin-1-yl)ethyl)morpholine] | 222 |
| N#CCCCN1CCN(c2nc(CCC(F)(F)F)no2)CC1 [Cmpd181, 4-(4-(3-(3,3,3-Trifluoropropyl)-1,2,4-oxadiazol-5-yl)piperazin-1-yl)butanenitrile] | 584 |
| Cc1cccc(CN2CCN(c3nc(CCC(F)(F)F)no3)CC2)n1 [Cmpd182, 5-(4-((6-Methylpyridin-2-yl)methyl)piperazin-1-yl)-3-(3,3,3-trifluoropropyl)-1,2,4-oxadiazole] | 282 |
| FC(F)(F)c1ccc(-c2noc(N3CCN(CCc4ccc(Cl)cc4)CC3)n2)cc1 [Cmpd183, 1-[2-(4-Chloro-phenyl)-ethyl]-4-[3-(4-trifluoromethyl-phenyl)-[1,2,4]oxadiazol-5-yl]-piperazine] | 57 |
| Clc1ccccc1CN1CCN(c2nc(C3C[C@@H]4CC[C@H]3C4)no2)CC1 (stereo partly drawn) [Cmpd184, 3-((1S,4R)-bicyclo[2.2.1]heptan-2-yl)-5-(4-(2-chlorobenzyl)piperazin-1-yl)-1,2,4-oxadiazole] | 135 |
| Cc1ccc(CN2CCN(c3nc(C4C[C@@H]5CC[C@H]4C5)no3)CC2)cc1 (stereo partly drawn) [Cmpd185, 3-((1S,4R)-bicyclo[2.2.1]heptan-2-yl)-5-(4-(4-methylbenzyl)piperazin-1-yl)-1,2,4-oxadiazole] | 71 |
| Clc1ccc(CCN2CCN(c3nc(C4C[C@@H]5CC[C@H]4C5)no3)CC2)cc1 (stereo partly drawn) [Cmpd186, 3-((1S,4R)-bicyclo[2.2.1]heptan-2-yl)-5-(4-(4-chlorophenethyl)piperazin-1-yl)-1,2,4-oxadiazole] | 17 |
